≈ marks a conversion by molar mass, not a printed value. Entries after “also recorded” stand apart in the source; their conditions may differ. Where two headings read alike, the source gives them in different places.
What was measured:
[1] = Alamar Blue cell viability/cytotoxicity assay; assay type: cell-based, human; conditions: human, mean ± SD (n = 4), read-out: IC50 of pesticide-induced cytotoxicity
Procedure: (§1) In this study, to assess the cytotoxic activity of GLY, IMD, and IMZ, human epithelial colorectal adenocarcinoma (Caco-2), cell lines service (CLS), (Eppelheim, Germany) and human hepatocellular carcinoma (HepG2) (ATCC, Rockville, Maryland, USA) cells were used. Cells were cultured in complete culture media (Dulbecco’s Modified Eagle Media (DMEM), supplemented with 1 mM L-glutamine, 10% (v/v) foetal bovine serum (FBS), and antibiotics (penicillin at 100 U/mL, and streptomycin at 100 μg/mL)) and maintained at 5% CO2/95% air; 37 °C, controlled humidity, in an incubator. Cells were grown in T25 culture flasks to near confluence. Then, these adherent cells were treated with trypsin (trypsin-EDTA), for detachment and subculture, which was stopped using complete culture medium (1:1, trypsin:culture media) as soon as cells were detached (about 6 and 8 minutes of trypsin treatment for HepG2 and Caco-2 cells, respectively). Detached cells were gently re-suspended with a Pasteur pipette and then a sample was counted using an automated cell counter (TC10™, BIORAD, Portugal). A suspension of cells in fresh culture media, at 5 × 10^4 cells/mL was prepared to seed into 96-well microplates (100 µL/well). After seeding, cells were placed in the incubator for 48 h (to adhere and stabilize) before being used, for other details see [66, 67].
(§2) Cell viability was assessed using the Alamar Blue® (AB) assay, after exposure to the pesticides. In summary, cells seeded into 96-well microplates were subjected to various concentrations of the pesticides (GLY: 0–1 mM; IMD: 0–1 mM; IMZ: 0–0.3 mM). To prepare the test solutions, the appropriate volume of the pesticide stock solution was diluted in FBS-free culture media just before its application to the cells. Stock solution of GLY was prepared in water (at 40 mM), and stock solutions of IMD and IMZ were prepared in DMSO (at 20 mM). After 24 h or 48 h of exposure, the test solutions were removed and the Alamar Blue solution (100 µL/well; 10% (v/v) in FBS-free medium) was immediately added to the cells, followed by a further 5 h incubation. The absorbance was then read at 570 and 620 nm using a microplate reader (Multiskan EX; MTX Lab Systems, Inc., Bradenton, FL, USA) and the percentage of the AB reduction was calculated according to the manufacturer’s instructions, as described before. Cell viability, at each condition, was calculated and expressed as percentage of control cells (non-exposed cells).
(§3) The concentrations needed to reduce cell viability by 50% (IC50) were calculated from three independent experiments (each one performed in quadruplicates), as described.

[2] = test system: Caco-2 cells; assay: Alamar Blue cell viability/cytotoxicity assay; assay type: cell-based, human
Procedure: as §1, §2, §3

[3] = test system: HepG2 cells; assay: Alamar Blue cell viability/cytotoxicity assay; assay type: cell-based, human; conditions: HepG2
Procedure: as §1, §2, §3

[4] = test system: Caco-2 cells; assay: Glutathione (GSH) content, Mercury Orange, flow cytometry; assay type: cell-based, human
Procedure: (§4) To assess GSH content, cells re-suspended in PBS (see Section 3.3.1) were incubated with 40 μM Mercury Orange (1-(4-chloromercuryphenyl-azo-2-naphtol) for 5 min (in the dark, room temperature), as described by du Plessis, et al..

[5] = test system: HepG2 cells; assay: as above; assay type: cell-based, human
Procedure: as §4

[6] = test system: Caco-2 cells; assay: Lipid peroxidation, DHPE-FITC probe, flow cytometry; assay type: cell-based, human; conditions: Caco-2, 24 h, tested concentrations
Procedure: (§5) Lipid peroxidation was evaluated using the DHPE-FITC probe. Cells re-suspended in PBS (see Section 3.3.1) were incubated with 20 μM DHPE-FITC, for 20 min in the dark at room temperature (as describe).

[7] = test system: HepG2 cells; assay: as above; assay type: cell-based, human; conditions: HepG2, 24 h, tested concentrations
Procedure: as §5

[8] = test system: Caco-2 cells; assay: Apoptosis/necrosis, Annexin-V-FITC/PI double staining, flow cytometry; assay type: cell-based, human
Procedure: (§6) The samples where then incubated for 20 min at room temperature. After this period, 5 μL of propidium iodide (PI; at 50 μg/mL) solution were added to each sample 3 min before acquisition.

[9] = test system: HepG2 cells; assay: as above; assay type: cell-based, human; conditions: HepG2, 24 h, tested concentrations; listed as IMZ
Procedure: as §6

[10] = test system: Caco-2 cells; conditions: Caco-2, 24 h, ref [34], cited from earlier work
[11] = ref [47],[48],[49],[50]; cited from earlier work
[12] = ref [47],[48],[49],[50]; cited from earlier work; remark: listed apart in the source

## C=CCOC(Cn1ccnc1)c1ccc(Cl)cc1Cl (stereo not drawn) [Imazalil, imazalil]
[1]; Caco-2 cells, Caco-2, 24 h exposure
  IC50 at 24 h: 254 ± 3.37 µM
[1]; Caco-2 cells, Caco-2, 48 h exposure
  IC50 at 48 h: 187 ± 2 µM
[1]; HepG2 cells, HepG2, 24 h exposure
  IC50 at 24 h: 94 ± 12 µM
[1]; HepG2 cells, HepG2, 48 h exposure
  IC50 at 48 h: 47 ± 3 µM
[2]; 24 h exposure
  IC50 for Caco-2 cells relative to HepG2 cells: 2.7 fold
[2]; 48 h exposure
  IC50 for Caco-2 cells relative to HepG2 cells: 4 fold
[2]; Caco-2
  IC50 at 24 h relative to IC50 at 48 h: 1.35 fold
[2]; Caco-2, 24 h exposure, mean ± SD (n = 4), read-out: IC50 of pesticide-induced cytotoxicity
  IC50: 254 ± 3 µM
[3]
  decrease in IC50 when doubling the exposure time (24 h to 48 h): 2 fold
[4]; Caco-2, 250 μM, 24 h
  increase in GSH content vs control: 1.59 fold
[4]; Caco-2, 24 h, tested concentrations
  change in GSH content vs control (in words): dose-dependent increase in GSH content
[5]; HepG2, 75 μM, 24 h
  increase in GSH content vs control: 1.97 fold
[5]; HepG2, 24 h, tested concentrations
  change in GSH content vs control (in words): dose-dependent increase in GSH content
[6]
  lipid peroxidation (LP) vs control (in words): induced significant LP
[7]
  lipid peroxidation (LP) vs control (in words): did not increase lipid peroxidation
[8]; Caco-2, 24 h, tested concentrations, listed as IMZ
  apoptosis/necrosis induction (in words): dose-dependent increase in late apoptosis
[8]; Caco-2, highest concentration (250 μM), 24 h, Figure 6B
  cells in necrosis: ~ 23%
[9]
  apoptosis/necrosis induction (in words): dose-dependently increased apoptosis; also recorded: no necrotic events recorded
[10]; converted value, read-out: IC50 (cytotoxicity)
  IC50: ~100 µM
[10]
  IC50 (cytotoxicity): 30 µg/mL (≈ 101 µM)
[11]
  Partition Coefficient n-octanol/water (Log Pow): 4.56
  Water solubility: 1400 µg/mL
[12]
  H-bond (donor count): 0
  H-donor (acceptor count): 2

From article PMC9331544, “Molecular Physicochemical Properties of Selected Pesticides as Predictive Factors for Oxidative Stress and Apoptosis-Dependent Cell Death in Caco-2 and HepG2 Cells” (International Journal of Molecular Sciences, 2022)
